The numbers were not newly measured in patent publication US20130224794A1, “MINERAL-PEPTIDE CHELATES” (NUGEN BIOSCIENCE (TAIWAN) CO., LTD., priority 2009, published 2013), which cites them from elsewhere.

The conditions of the data set: for absorption: qualitative.
Where [1] appears, read: general soybean isoflavones, glucoside vs aglycone form.

Read-outs that look alike come from different tables or passages of the source.

For the compound `O=c1c(-c2ccc(O)cc2)coc2cc(O)ccc12` [daidzein], the bioavailability (in vivo) is given as 90%.
Consider `O=c1c(-c2ccc(O)cc2)coc2cc(O[C@@H]3O[C@H](CO)[C@@H](O)[C@H](O)[C@H]3O)ccc12` [daidzin], for which, under setting [1], the bioavailability is reported as 20% and the absorption entry is recorded as “slow”.
In the case of `O=c1c(-c2ccc(O)cc2)coc2cc(O)cc(O)c12` [genistein], under setting [1], the bioavailability is 90% and the absorption entry is listed as “fast”.
As to `O=c1c(-c2ccc(O)cc2)coc2cc(O[C@@H]3O[C@H](CO)[C@@H](O)[C@H](O)[C@H]3O)cc(O)c12` [genistin], under setting [1], the bioavailability was 20% and the absorption entry is “slow”.
